Measurements: patent publication US20180271945A1, “UROCORTIN 2 ANALOGS AND USES THEREOF” (Research Development Foundation, priority 2009, published 2018)
Where two headings read alike, the source gives them in different places. No end group written: not given here. *: point of attachment. Acm = CC(=O)NC*

Key:
CRFR2 = target: T1, CRFR2 (Rattus norvegicus, UniProt P47866); experiment: stimulation of cAMP accumulation in A7r5 cells; format: cell-based
T1 construct: A7r5 cells, which express CRFR2; endogenous in cells; host or cells: A7r5 cells
Protocol: Urocortin 2 precursors were overexpressed in various cell lines, and their function was evaluated. Pancreatic and skin cell lines were infected with mouse urocortin 2 (mUcn 2) lentivirus. The amino acid sequence of mouse urocortin 2 is provided as SEQ ID NO:10. […] The peptide was synthesized and bioactivity was determined by the stimulation of cAMP accumulation in A7r5 cells, which express CRFR2. […] It is possible that R^0mUcn 2 could be further processed by aminopeptidases to mUcn 2(1-38). Number of assays are depicted as a superscript.
The corresponding human analog, R^0hUcn 2, was synthesized.
The EC50S were calculated based on protein determination by immunoassay and chromatographic peak height.

[1] = QC reverse phase HPLC (trifluoroacetic acid/acetonitrile) as evidence of solubility/hydrophilicity; format: physicochemical; details: from reverse phase HPLC retention time
Description: A peptide extended with a hydrophilic arginine residue such as R^0hUcn 2 is likely more soluble, and therefore, a better pharmaceutical agent, than hUcn 2(1-38). […]

[2] = A7r5 cells, EC50s calculated based on protein determination by immunoassay and chromatographic peak height, read-out: cAMP A7r5 (EC50)
[3] = A7r5 cells, which express CRFR2, range in brackets, number of assays as superscript, read-out: EC50 for stimulation of cAMP accumulation in A7r5 cells

T1 sequence (P47866 1-431 isoform P47866-2): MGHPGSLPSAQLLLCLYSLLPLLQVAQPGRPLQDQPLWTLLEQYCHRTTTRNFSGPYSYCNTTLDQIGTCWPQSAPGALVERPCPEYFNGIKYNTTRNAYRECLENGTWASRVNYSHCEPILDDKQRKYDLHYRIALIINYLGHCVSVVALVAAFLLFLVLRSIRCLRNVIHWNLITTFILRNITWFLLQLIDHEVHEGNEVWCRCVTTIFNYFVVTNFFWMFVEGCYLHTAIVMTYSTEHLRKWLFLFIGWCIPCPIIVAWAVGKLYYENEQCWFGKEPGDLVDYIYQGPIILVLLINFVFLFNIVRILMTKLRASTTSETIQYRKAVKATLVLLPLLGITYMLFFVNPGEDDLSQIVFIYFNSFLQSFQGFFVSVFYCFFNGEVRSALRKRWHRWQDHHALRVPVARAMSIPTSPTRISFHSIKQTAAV

Substance | EC50 (CRFR2; [2]) | also measured
HPGSRIVLSLDVPIGLLQILLEQARARAAREQATTNARILARV-NH2 [SRP (HPGSR-hUcn 2)] | 0.09 nM | –
RIVLSLDVPIGLLQILLEQARARAAREQATTNARILARV-NH2 [R^0-hUcn 2] | – | EC50 (CRFR2; [3]): 0.027 nM; hydrophilicity compared with hUcn 2(1-38) [1]: significantly increased hydrophilicity
RVILSLDVPIGLLRILLEQARYKAARNQAATNAQILAHV-NH2 [R^0-mUcn 2] | – | EC50 (CRFR2; [3]): 0.05 nM
IPTFQLRPQNSPQTTPRPAASESPSAAPTWPWAAQSHCSPTRHPGSRIVLSLDVPIGLLQILLEQARARAAREQATTNARILARV-NH2 [hUcn 2 prohormone] | – | EC50 (CRFR2): 2.3 nM
C(Acm)SPTRHPGSRIVLSLDVPIGLLQILLEQARARAAREQATTNARILARVGHC(Acm)-OH [[Cys^1,51 (Acm)]-hUcn 2(1-51)-OH)] | 9.5 nM | –
IVLSLDVPIGLLQILLEQARARAAREQATTNARILARVG-OH [hUcn 2-G-OH] | 6.3 nM | –
IVLSLDVPIGLLQILLEQARARAAREQATTNARILARVGHC-OH [hUcn 2-GHC-OH] | 13.9 nM | –
IVLSLDVPIGLLQILLEQARARAAREQATTNARILARVGH-OH [hUcn 2-GH-OH] | 2.9 nM | –
IVLSLDVPIGLLQILLEQARARAAREQATTNARILARV-OH [hUcn 2-OH] | 90.4 nM | –
TPIPTFQLLPQNSLETTPSSVTSESSSGTTTGPSASWSNSKASPYLDTRVILSLDVPIGLLRILLEQARYKAARNQAATNAQILAHV-NH2 [mUcn 2 prohormone] | – | EC50 (CRFR2): 0.53 nM
